Values after ≈ are worked out from the molar mass of the structure shown. Read-outs that look alike come from different tables or passages of the source.
Experiments:
[1] = system: human embryoid bodies (hEBs); assay: Morphological evaluation of embryoid bodies (photomicrographs); type: cell-based; conditions: for morphology of treated hEBs compared to controls: day 7, 10 μg/ml (FIG. 4E-c, 4F-c); for concentration required to elicit a similar morphological response (loss of compactness, decreased EB size): day 7 hEBs, FIG. 4A-4D
Procedure: Hanging drops were made in hES media with LIF and bFGF for calculating IC50-hES cells, and in hES media without LIF and bFGF (hEB media) for the formation of EBs. On day 3 the hES colonies were collected along with the respective test compound concentration, whereas the hEBs were collected and transferred to 60 mm bacteriological petri plates for another 2 days. Morphology of the EBs was monitored under the microscope for the formation of EBs. On day 5 the hEBs were plated in a 96 well plate for MTT, as well as on a 6 well plate for RNA extraction. The media along with the appropriate test compound concentration was replaced in the 96 well and 6 well plates on days 7, 9, 11, and 13. On day 15, MTT was performed on the hES plate and the differentiated EBs. RNA was extracted from all the concentrations of 5-fluorouracil, and 1 μg of RNA was converted to cDNA to perform RT-PCR, real time PCR, or TLDA.

[2] = system: human embryoid bodies (hEB); assay: Cytotoxicity in human embryoid bodies, day 15 (MTT / CyQUANT); conditions: for IC50: Homo sapiens
Procedure: (§1) In general, the presently disclosed embryotoxicity testing protocols comprise the following sequence of steps. Studies using embryoid bodies generally comprise: a) preparation of various concentrations of test solutions in culture medium or a desired solvent; b) preparation of a cell suspension by enzymatic digestion of human embryonic stem cell colonies; c) culturing the cell suspension for formation of embryoid bodies in the presence and absence of one or more test solutions, and incubation for several days (e.g., three days) in hanging drops; d) cultivation of the embryoid bodies in bacteriological petri dishes for several days (e.g., two days) under controlled conditions; e) transfer of the embryoid bodies into 96 well plates and incubation for several days (e.g., 10 days) in the presence of one or more test solutions; and f) detection of the viability of the embryoid bodies after 15 days by MTT assay, or fluorescent or luminescent method, and isolation of RNA for studying gene expression. Studies using human foreskin fibroblasts (HFF) generally comprise: a) preparation of various concentrations of test solutions in culture medium or a desired solvent; b) plating of HFF cells in 96 well plates in the presence or absence of one or more test solutions for 15 days, changing the media and test solutions every 2 days; and c) detection of the viability of HFF after 15 days by MTT assay, or fluorescent or luminescent method. Studies using human embryonic stem cells generally comprise: a) preparation of various concentrations of test solutions in culture medium or a desired solvent; b) preparation of hES colonies by manual passage in the presence and absence of one or more test solutions, and incubation for 15 days on matrigel coated plates changing the media and test solutions every 2 days; c) disruption of the colonies after 15 days with enzymes to form single cells; d) labeling of single cells with a fluorescently-labeled dye, such as propidium iodide (“PI”); and e) detection of the percentage viability with FACS as a measure of cytotoxicity.
The culturing of the cell suspension is done by dispensing about ¼ of the cell suspension along with test chemicals on the inner side of a 100 mm bacteriological petri dish. Around 50-80 drops are dispensed for each concentration, the untreated control, and the solvent control. The lid is turned carefully into its regular position and is put on top of a petri dish containing 5 ml of phosphate buffered saline (“PBS”). The “hanging drops” are incubated for three days in a humidified atmosphere with 5% CO2 at 37° C.
On day 3, 5 ml of freshly prepared test solution is added to the lid of the “hanging drops” petri dish. The embryoid bodies are carefully transferred from the lid of the “hanging drops” petri dish to a 60 mm bacteriological petri dish. The suspension is cultivated for two days in a humidified atmosphere with 5% CO2 at 37° C.
On the 5th day, the EBs are transferred into 96 well plates by placing 10 EBs in each well. About 150 μl of freshly prepared test solution is added to each well, and three wells are used for each concentration. The 96 well plates are incubated for […] in a humidified atmosphere with 5% CO2 at 37° C. The remaining EBs are plated on a 24 well plate coated with 0.2% gelatin and allowed to differentiate. Media was replaced every second day until day 15.
On the 15th day, an MTT assay is performed. MTT solution (5 mg/ml) is prepared in culture medium containing test chemical. The MTT solution is added to all wells and incubated at 37° C. in a humidified atmosphere of 5% CO2 for 4 hours, after which the MTT desorb solution (acidified isopropanol) is added to each well. The plate is shaken on a micrometer plate for 15 minutes to dissolve the formazan. The absorbance is measured at 550-570 nm in a microtiter plate reader using 630 nm as a reference wavelength.

[3] = system: human foreskin fibroblasts (HFF); assay: Cytotoxicity in human foreskin fibroblasts, day 15 (MTT / CyQUANT); type: cell-based; conditions: for IC50: Homo sapiens, Fibroblast
Procedure: as §1
HFF were trypsinized, and a cell suspension of 1×10^4 cells/ml in routine culture medium was prepared. Using a multi-channel pipette, 50 μl volumes of the cell suspension (500 cells/well) was dispensed. Viability of the cells can be checked by staining an aliquot of the cell suspension with trypan blue. A viability of 90% is acceptable. The cells were incubated for 2 hours in a humidified atmosphere with 5% CO2 at 37° C., which allows for adherence of the cells. After 15 days of culture with medium changes (containing appropriate test compound concentrations) every 3 days, the viability of the cells was determined using the MTT test, which was detected quantitatively using a microplate ELISA reader at 570 nm with a 630 nm reference filter.
Cytotoxicity analysis of three cell types (hES, hEBs and HFF) was evaluated using the CyQUANT assay following compound treatment. All data were the mean of three independent experiments for each cell type. Data is represented as the mean±SE.
The endpoints of detection chosen in the study was inhibition of cell proliferation in human ES cells (IC50 hES), differentiating EBs (IC50 hEB), and in HFF (IC50 HFF), as evidenced in a cell viability assay using CyQuant assay.

[4] = 360 h, Table 3, mean of 3 experiments, day 15, read-out: IC50-HFF
[5] = Table 4, CyQuant cell viability assay, read-out: Human EST IC50 - HFF

## O=c1[nH]cc(F)c(=O)[nH]1 [5-Fluorouracil, 5-fluorouracil]
[1]; 1 μg/ml, day 5, FIG. 2A
  morphology of 5 day old EBs compared to control: significant change in the morphology
[2]; 1 μg/ml (highest dose)
  survival of hEBs until day 15: did not survive until day 15
[2]; 360 h, read-out: IC50-hEB
  IC50: 0.00114 µg/mL (≈ 0.00873 µM)
[2]; hEBs, 0.01 μg/ml, FIG. 3A
  effect on cell viability: significant effect
[2]; hEBs, 1 μg/ml, day 15, FIG. 3A
  survival percentage: 7%
[3]; HFF, 1 μg/ml, day 15, FIG. 3A
  survival percentage: 7%
[3]; HFF, up to 0.01 μg/ml, FIG. 3A
  effect on cell viability: no major effect
[3]; [4]
  IC50: 0.11 µg/mL (≈ 0.848 µM)

## CS(=O)(=O)OCCCCOS(C)(=O)=O [Busulfan, busulfan]
[1]
  morphology of treated hEBs compared to controls: loss of compactness and a decrease in the size of the EBs
[2]; 360 h, read-out: IC50-hEB
  IC50: 0.38 ± 0.03 µg/mL (≈ 1.54 µM)
[2]; read-out: IC50-hEBs
  IC50: 0.38 µg/mL (≈ 1.54 µM)
[2]; hEBs, 1 μg/ml, CyQUANT, FIG. 4E
  cell survival: 30%
[3]; [4]
  IC50: 2.7 ± 0.2 µg/mL (≈ 11 µM)
[3]; [5]
  IC50: 2.7 ± 0.2 µg/mL (≈ 11 µM)

## Cn1c(=O)c2c(ncn2C)n(C)c1=O [Caffeine, caffeine]
[1]; increasing dose (50 and 500 μg/ml), day 5, FIG. 2B
  morphology of 5 day old EBs: significant darkening of the cells
[2]; 360 h, read-out: IC50-hEB
  IC50: 81.6 ± 5.4 µg/mL (≈ 420 µM)
[2]; read-out: IC50-hEBs
  IC50: 81.6 µg/mL (≈ 420 µM)
[2]; hEBs, 500 μg/ml, FIG. 3B
  survival: about 10%
[3]; HFF, 500 μg/ml, FIG. 3B
  survival: about 10%
[3]; [4]
  IC50: 79.3 ± 3.4 µg/mL (≈ 408 µM)
[3]; [5]
  IC50: 79.3 ± 3.4 µg/mL (≈ 408 µM)

## NC(=O)NO [Hydroxyurea, hydroxyurea]
[1]
  morphology of treated hEBs compared to controls: loss of compactness and a decrease in the size of the EBs
[2]; 360 h, read-out: IC50-hEB
  IC50: 2.33 ± 0.2 µg/mL (≈ 30.6 µM)
[2]; read-out: IC50-hEBs
  IC50: 2.3 µg/mL (≈ 30.2 µM)
[3]; [4]
  IC50: 8.9 ± 0.9 µg/mL (≈ 117 µM)
[3]; [5]
  IC50: 8.9 ± 0.9 µg/mL (≈ 117 µM)

## COc1ccc2c(c1)c(CC(=O)O)c(C)n2C(=O)c1ccc(Cl)cc1 [Indomethacin, indomethacin]
[1]
  concentration required to elicit a similar morphological response (loss of compactness, decreased EB size): 100 μg/ml
[2]; 360 h, read-out: IC50-hEB
  IC50: 4.49 ± 0.84 µg/mL (≈ 12.5 µM)
[2]; read-out: IC50-hEBs
  IC50: 4.49 µg/mL (≈ 12.5 µM)
[3]; [4]
  IC50: 33.5 ± 1.3 µg/mL (≈ 93.6 µM)
[3]; [5]
  IC50: 33.5 ± 1.3 µg/mL (≈ 93.6 µM)

## CC1(C)S[C@@H]2[C@H](NC(=O)Cc3ccccc3)C(=O)N2[C@H]1C(=O)O [Penicillin G, penicillin G]
[1]; 5000 μg/ml (highest dose), day 5, FIG. 2C
  morphology of 5 day old EBs: non-significant darkening
[1]
  concentration required to elicit a similar morphological response (loss of compactness, decreased EB size): 5000 μg/ml
[1]; up to 1000 μg/ml, day 5, FIG. 2C
  morphology of 5 day old EBs: no significant change
[2]; 1000 μg/ml, FIG. 3C
  cytotoxic effects in hEBs compared to hES cells and HFF: more cytotoxic effects
[2]; Table 5
  IC50-hEBs: 1300 µg/mL (≈ 3890 µM)
[2]; hEBs, 1000 μg/ml, CyQUANT, FIG. 4A/4B
  cell survival: about 60%
[2]; hEBs, 5000 μg/ml (highest dose), FIG. 3C
  cell survival: 30%
[3]; HFF, 5000 μg/ml (highest dose), FIG. 3C
  cell survival: 1-2%
[3]; Table 3, mean of 3 experiments, day 15
  IC50-HFF: 1661 ± 23.5 µg/mL (≈ 4970 µM)
[3]; Table 4, CyQuant cell viability assay
  Human EST IC50 - HFF: 1661 ± 23.5 µg/mL
